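Cells were grown in 96-well plates and exposed to each compound for 48 hours at five concentrations; endpoints were interpolated linearly between bracketing concentrations, or set to the highest concentration if not reached. Here, GI50 denotes the concentration required for 50% inhibition of growth.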 The source made the active and inactive calls. Cut-off read from the data, not from the text of the source: active = GI50 up to about 1.1 µM and inactive = higher.
What was measured:
Assay in all cases: NCI tumour cell line growth inhibition, 48 h
NCI-H460 = system: NCI-H460
Malme-3M = system: Malme-3M
UACC-257 = system: UACC-257
K562 = system: K562
OVCAR-4 = system: OVCAR-4
CCRF-CEM = system: CCRF-CEM
SN12C = system: SN12C
MCF7 = system: MCF7
HOP-62 = system: HOP-62
NCI/ADR-RES = system: NCI/ADR-RES
A498 = system: A498
Hs-578T = system: Hs-578T
HCT-15 = system: HCT-15
NCI-H522 = system: NCI-H522
ACHN = system: ACHN
HCC 2998 = system: HCC 2998
SF-295 = system: SF-295
SK-MEL-2 = system: SK-MEL-2
OVCAR-3 = system: OVCAR-3
OVCAR-8 = system: OVCAR-8
SNB-19 = system: SNB-19
TK-10 = system: TK-10
M14 = system: M14
U-251 = system: U-251
NCI-H23 = system: NCI-H23
UACC-62 = system: UACC-62
MOLT-4 = system: MOLT-4
HCT-116 = system: HCT-116
KM12 = system: KM12
UO-31 = system: UO-31
CAKI-1 = system: CAKI-1
SW-620 = system: SW-620
MDA-MB-435 = system: MDA-MB-435
DU-145 = system: DU-145
MDA-MB-231 = system: MDA-MB-231
SK-MEL-28 = system: SK-MEL-28
COLO 205 = system: COLO 205
RXF 393 = system: RXF 393
786-0 = system: 786-0
RPMI-8226 = system: RPMI-8226
PC-3 = system: PC-3
T47D = system: T47D
SF-268 = system: SF-268
IGROV-1 = system: IGROV-1
NCI-H226 = system: NCI-H226
HT-29 = system: HT-29
SK-OV-3 = system: SK-OV-3
BT-549 = system: BT-549
LOX IMVI = system: LOX IMVI
A549 = system: A549
SK-MEL-5 = system: SK-MEL-5
SF-539 = system: SF-539
SNB-75 = system: SNB-75
SR = system: SR
MDA-N = system: MDA-N
EKVX = system: EKVX
OVCAR-5 = system: OVCAR-5
HL-60 = system: HL-60
HOP-92 = system: HOP-92

Measured: GI50

COC(=O)C(Cc1ccccc1)NP(=O)(O)OCC1OC(n2cc(F)c(=O)[nH]c2=O)CC1O (configuration not stated)
inactive: Malme-3M > 100 µM | UACC-257 > 56 µM | K562 65.3 µM | OVCAR-4 > 100 µM | SN12C 10.4 µM | HOP-62 2.58 µM | NCI/ADR-RES 5.7 µM | A498 7.38 µM | Hs-578T > 82.8 µM | NCI-H522 > 100 µM | ACHN 1.44 µM | HCC 2998 2.39 µM | SF-295 3.72 µM | SK-MEL-2 > 100 µM | OVCAR-3 > 100 µM | OVCAR-8 9.12 µM | SNB-19 3.34 µM | TK-10 > 100 µM | M14 21.3 µM | U-251 8.99 µM | NCI-H23 10.9 µM | UACC-62 7 µM | MOLT-4 4.78 µM | HCT-116 5.53 µM | KM12 > 100 µM | UO-31 5.24 µM | CAKI-1 3.72 µM | SW-620 > 100 µM | MDA-MB-435 > 86.3 µM | DU-145 9.79 µM | MDA-MB-231 > 100 µM | SK-MEL-28 > 67 µM | COLO 205 74 µM | RXF 393 > 100 µM | 786-0 4.14 µM | RPMI-8226 > 79.6 µM | PC-3 > 78.5 µM | T47D 12.6 µM | SF-268 1.75 µM | IGROV-1 > 22.5 µM | NCI-H226 > 33.4 µM | HT-29 11.2 µM | SK-OV-3 61.4 µM | BT-549 > 100 µM | LOX IMVI 3.21 µM | SK-MEL-5 15.3 µM | SNB-75 > 31.9 µM | SR 2.54 µM | MDA-N > 69 µM | EKVX > 100 µM | OVCAR-5 > 100 µM | HL-60 10.5 µM
> 100 µM: HCT-15
active: NCI-H460 0.236 µM | CCRF-CEM 1.1 µM | MCF7 0.317 µM | A549 0.955 µM | SF-539 0.991 µM

COc1cc(S(=O)(=O)Nc2ccc(-c3csc(/N=C\c4ccccc4)n3)cc2)ccc1Cl
inactive: Malme-3M > 100 µM | K562 32.2 µM | OVCAR-4 79.4 µM | CCRF-CEM 17 µM | SN12C > 100 µM | MCF7 20.5 µM | HOP-62 41.4 µM | NCI/ADR-RES > 100 µM | A498 37.5 µM | Hs-578T 53.3 µM | NCI-H522 29.9 µM | ACHN > 100 µM | HOP-92 > 100 µM | SF-295 76.9 µM | SK-MEL-2 25.2 µM | OVCAR-3 56.9 µM | OVCAR-8 > 100 µM | SNB-19 31.6 µM | M14 56.1 µM | NCI-H23 60.7 µM | UACC-62 29.9 µM | MOLT-4 12.7 µM | HCT-116 44.8 µM | KM12 36.4 µM | UO-31 74.3 µM | CAKI-1 > 100 µM | SW-620 33.5 µM | MDA-MB-435 34.1 µM | DU-145 85.1 µM | MDA-MB-231 37.2 µM | SK-MEL-28 33.7 µM | COLO 205 36.4 µM | RXF 393 1.44 µM | 786-0 81.3 µM | RPMI-8226 32 µM | PC-3 48.2 µM | T47D 35.9 µM | SF-268 32 µM | IGROV-1 > 100 µM | NCI-H226 75.2 µM | HT-29 44.2 µM | SK-OV-3 > 100 µM | BT-549 41.4 µM | LOX IMVI 43.9 µM | A549 > 100 µM | SK-MEL-5 52.7 µM | SF-539 35.1 µM | SNB-75 62.7 µM | SR 29.8 µM | MDA-N 39 µM | EKVX 30.3 µM | OVCAR-5 > 100 µM | HL-60 25.6 µM
> 100 µM: HCT-15

— ChEMBL document CHEMBL1201862, “PubChem BioAssay data set” (2004)
